Results published in patent US20260317324A1, “BIFUNCTIONAL COMPOUNDS FOR DEGRADING BRAF VIA UBIQUITIN PROTEOSOME PATHWAY” (Nurix Therapeutics, Inc., priority 2023, published 2026).

Key:
Format in all cases: cell-based
[1] = biological target: T1, BRAF G466V (Homo sapiens, UniProt P15056, G466V); experiment: BRAF HiBiT degradation assay, C-terminal HiBiT-tagged BRAF G466V overexpressed in HCT-116 BRAF−/− cells (clone 8), Nano-Glo HiBiT Lytic assay
T1 construct: Horizon Discovery (HCT-116 BRAF−/− cells); host or cells: HCT-116 BRAF−/− cells, clone 8, lentiviral transduction
Summary of the method: (§1)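 Cells 3,000/well, 24 h at 37 °C; cpds 1 μM–0.01 nM, 11-pt half-log, duplicate, 0.2% DMSO. Readout: HiBiT lytic luminescence, 10 min at RT. Normalized to DMSO-treated tagged cells, with DMSO-treated wild-type HCT-116 as background. DC50 = fitted concentration at Y=50; Obs. Dmax = % degraded at maximal effect.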

[2] = biological target: T2, BRAF D594G (Homo sapiens, UniProt P15056, D594G); experiment: BRAF HiBiT degradation assay, C-terminal HiBiT-tagged BRAF D594G overexpressed in HCT-116 BRAF−/− cells (clone 63), Nano-Glo HiBiT Lytic assay
T2 construct: Horizon Discovery (HCT-116 BRAF−/− cells); host or cells: HCT-116 BRAF−/− cells, clone 63, lentiviral transduction
Summary of the method: as §1

[3] = biological target: T3, BRAF G469A (Homo sapiens, UniProt P15056, G469A); experiment: BRAF HiBiT degradation assay, C-terminal HiBiT-tagged BRAF G469A overexpressed in HCT-116 BRAF−/− cells (clone 34), Nano-Glo HiBiT Lytic assay
T3 construct: Horizon Discovery (HCT-116 BRAF−/− cells); host or cells: HCT-116 BRAF−/− cells, clone 34, lentiviral transduction
Summary of the method: as §1

[4] = biological target: T4, BRAF V600E (Homo sapiens, UniProt P15056, V600E); experiment: BRAF HiBiT degradation assay, C-terminal HiBiT-tagged BRAF V600E A375 cells (clone 1F10), Nano-Glo HiBiT Lytic assay; conditions: for Dmax: A-375
T4 construct: endogenous C-terminal HiBiT fusion tag on BRAF V600E allele; endogenous in cells; host or cells: A375 clone 1F10 (CRISPR-Cas9 knock-in of the HiBiT tag; parental A375 from ATCC)
Summary of the method: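 Luminescence read-out: Nano-Glo HiBiT lytic reagent with LgBiT, 10 min at room temperature. Signal normalised to DMSO-treated tagged cells, with wildtype A375 as background. Cells are endogenously tagged BRAF V600E A375 clone 1F10. Compounds were tested from 1 μM to 0.01 nM; Dmax is observed % degraded at maximal effect.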

[5] = BRAF G466V, DC50 at 50%: fitted conc. at Y=50
[6] = HCT-116, BRAF G466V, percentage protein degraded at maximal compound effect relative to DMSO
[7] = BRAF D594G, DC50 at 50%: fitted conc. at Y=50
[8] = HCT-116, BRAF D594G, percentage protein degraded at maximal compound effect relative to DMSO
[9] = Class 2, BRAF G469A, DC50 at 50%: fitted conc. at Y=50
[10] = HCT-116, Class 2, BRAF G469A, percentage protein degraded at maximal compound effect relative to DMSO
[11] = A375 (BRAF V600E), DC50 at 50%: fitted conc. at Y=50
[12] = A375 (BRAF V600E), percentage protein degraded at maximal compound effect relative to DMSO
[13] = BRAF G466V (Class 3), HCT-116 BRAF−/− cells, DC50 at 50% degradation
[14] = BRAF G466V (Class 3), HCT-116 BRAF−/− cells, observed Dmax relative to DMSO control
[15] = BRAF D594G (Class 3), HCT-116 BRAF−/− cells, DC50 at 50% degradation
[16] = BRAF D594G (Class 3), HCT-116 BRAF−/− cells, observed Dmax relative to DMSO control
[17] = BRAF G469A (Class 2), HCT-116 BRAF−/− cells, DC50 at 50% degradation
[18] = BRAF G469A (Class 2), HCT-116 BRAF−/− cells, observed Dmax relative to DMSO control
[19] = A375 (BRAF V600E, Class 1), DC50 at 50% degradation
[20] = A375 (BRAF V600E, Class 1), observed Dmax, % protein degraded relative to DMSO control

T2 sequence (P15056 whole entry D594G): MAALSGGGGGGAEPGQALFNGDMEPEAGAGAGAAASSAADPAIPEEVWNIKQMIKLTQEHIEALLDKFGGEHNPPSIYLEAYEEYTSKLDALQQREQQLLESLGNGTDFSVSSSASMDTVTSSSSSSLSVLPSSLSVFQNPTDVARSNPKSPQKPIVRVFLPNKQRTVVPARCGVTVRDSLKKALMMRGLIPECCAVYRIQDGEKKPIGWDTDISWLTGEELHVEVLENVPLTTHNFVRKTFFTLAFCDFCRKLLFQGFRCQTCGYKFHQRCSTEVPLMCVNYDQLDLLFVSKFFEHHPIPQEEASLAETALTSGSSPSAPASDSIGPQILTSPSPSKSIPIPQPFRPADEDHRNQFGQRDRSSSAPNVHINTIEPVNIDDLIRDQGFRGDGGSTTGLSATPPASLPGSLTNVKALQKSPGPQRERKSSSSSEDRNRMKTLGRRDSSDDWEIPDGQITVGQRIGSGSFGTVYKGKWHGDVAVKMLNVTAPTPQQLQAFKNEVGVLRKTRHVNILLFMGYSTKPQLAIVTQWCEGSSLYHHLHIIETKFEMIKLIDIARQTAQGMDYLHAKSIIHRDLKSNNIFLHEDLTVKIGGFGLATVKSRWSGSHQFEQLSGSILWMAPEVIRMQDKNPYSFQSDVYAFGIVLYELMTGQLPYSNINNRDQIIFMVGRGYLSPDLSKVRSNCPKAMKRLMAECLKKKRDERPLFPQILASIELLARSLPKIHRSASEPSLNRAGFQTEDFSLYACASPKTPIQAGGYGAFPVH
T1 sequence (P15056 whole entry G466V): as the sequence (P15056 whole entry D594G) above, with G466V, G594D counted along it
T4 sequence (P15056 whole entry V600E, the tested form may be a part): as the sequence (P15056 whole entry D594G) above, with G594D, V600E counted along it
T3 sequence (P15056 whole entry G469A): as the sequence (P15056 whole entry D594G) above, with G469A, G594D counted along it

For `CCCS(=O)(=O)Nc1cccc(-c2nc(C3CCC4(CC3)CN(C(=O)C3CCN(c5ccc6c(c5)C(=O)N(C5CCC(=O)NC5=O)C6=O)CC3)C4)sc2-c2ccnc(N)n2)c1F` (racemic) [Compound 244, Rac-N-{3-[5-(2-aminopyrimidin-4-yl)-2-[2-(1-{2-[(3R)-2,6-dioxopiperidin-3-yl]-1,3-dioxo-2,3-dihydro-1H-isoindol-5-yl}piperidine-4-carbonyl)-2-azaspiro[3.5]nonan-7-yl]-1,3-thiazol-4-yl]-2-fluorophenyl}propane-1-sulfonamide], which DC50 [1, 5] is on record?
Its DC50 is 10 to 50 nM.

And the Dmax [1, 6]?
The Dmax was 30 to 70%.

And the DC50 [2, 7]?
The DC50 was < 10 nM.

What about the Dmax [2, 8] of the same molecule?
The Dmax was 30 to 70%.

And the DC50 [3, 9]?
The DC50 was > 500 nM.

And the Dmax [3, 10]?
The Dmax was < 30%.

What about the DC50 [4, 11] of the same molecule?
The DC50 was < 10 nM.

And the Dmax [4, 12]?
The Dmax was > 70%.

`CCCS(=O)(=O)Nc1cccc(-c2nc(C3CCN(C(=O)C4CCN(C(=O)C5CCN(c6ccc(C7CCC(=O)NC7=O)cn6)CC5)CC4)CC3)sc2-c2ccnc(NC3CC3)n2)c1F` (racemic) [Compound 198, Rac-N-(3-{5-[2-(cyclopropylamino)pyrimidin-4-yl]-2-{1-[1-(1-{5-[(3R)-2,6-dioxopiperidin-3-yl]pyridin-2-yl}piperidine-4-carbonyl)piperidine-4-carbonyl]piperidin-4-yl}-1,3-thiazol-4-yl}-2-fluorophenyl)propane-1-sulfonamide] was tested. Which DC50 [1, 5] did it give?
Its DC50 is > 500 nM.

What about the Dmax [1, 6] of the same molecule?
The Dmax was 30 to 70%.

And the DC50 [2, 7]?
Its DC50 is < 10 nM.

And the Dmax [2, 8]?
The Dmax was 30 to 70%.

And the DC50 [3, 9]?
Its DC50 is > 500 nM.

And the Dmax [3, 10]?
Its Dmax is 30 to 70%.

What about the DC50 [4, 11] of the same molecule?
Its DC50 is < 10 nM.

What about the Dmax [4, 12] of the same molecule?
The Dmax was > 70%.

What does the source list for `O=C1CC[C@@H](c2ccc(N3CCC(CN4CCN(c5ccc(-n6cc(-c7cc(Cl)cc(NS(=O)(=O)N8CCCC8)c7F)c(-c7ccncc7)n6)cc5)CC4)CC3)cc2F)C(=O)N1` [Compound 384, N-{5-chloro-3-[1-(4-{4-[(1-{4-[(3S)-2,6-dioxopiperidin-3-yl]-3-fluorophenyl}piperidin-4-yl)methyl]piperazin-1-yl}phenyl)-3-(pyridin-4-yl)-1H-pyrazol-4-yl]-2-fluorophenyl}pyrrolidine-1-sulfonamide]?
DC50 [1, 13]: 10 to 50 nM; Dmax [1, 14]: 30 to 70%; DC50 [2, 15]: > 500 nM; Dmax [2, 16]: 30 to 70%; DC50 [3, 17]: > 500 nM; Dmax [3, 18]: 30 to 70%; DC50 [4, 19]: 10 to 50 nM; Dmax [4, 20]: > 70%

What does the source list for `O=C1CCN(c2ccc(N3CCC(CN4CCN(c5ccc(-n6cc(-c7cc(Cl)cc(NS(=O)(=O)N8CC(F)C8)c7F)c(-c7ccncc7)n6)c(F)c5)CC4)CC3)nc2)C(=O)N1` [Compound 369, N-[5-chloro-3-(1-{4-[4-({1-[5-(2,4-dioxo-1,3-diazinan-1-yl)pyridin-2-yl]piperidin-4-yl}methyl)piperazin-1-yl]-2-fluorophenyl}-3-(pyridin-4-yl)-1H-pyrazol-4-yl)-2-fluorophenyl]-3-fluoroazetidine-1-sulfonamide]?
DC50 [1, 13]: 10 to 50 nM; Dmax [1, 14]: 30 to 70%; DC50 [2, 15]: < 10 nM; Dmax [2, 16]: 30 to 70%; DC50 [3, 17]: < 10 nM; Dmax [3, 18]: 30 to 70%; DC50 [4, 19]: < 10 nM; Dmax [4, 20]: > 70%

Which results are given for `CCCS(=O)(=O)Nc1cccc(-c2nc(C(C)(C)C)sc2-c2ccnc(Nc3cnn(CC4CCN(C(=O)[C@H]5CC[C@H](Oc6ccc(C7CCC(=O)NC7=O)cc6)CC5)CC4)c3)n2)c1F` (mixture of isomers) [Compound 118, N-{3-[2-tert-butyl-5-(2-{[1-({1-[(1r,4r)-4-{4-[(3RS)-2,6-dioxopiperidin-3-yl]phenoxy}cyclohexanecarbonyl]piperidin-4-yl}methyl)-1H-pyrazol-4-yl]amino}pyrimidin-4-yl)-1,3-thiazol-4-yl]-2-fluorophenyl}propane-1-sulfonamide]?
DC50 [1, 5]: > 500 nM; Dmax [1, 6]: < 30%; DC50 [2, 7]: > 500 nM; Dmax [2, 8]: 30 to 70%; DC50 [3, 9]: > 500 nM; Dmax [3, 10]: < 30%; DC50 [4, 11]: < 10 nM; Dmax [4, 12]: > 70%
